Assay results from US20260001928A1 (CORTERIA PHARMACEUTICALS, priority 2022, published 2026).
*1 amine or outer side, *2 acyl side, *3 side chain or, on linkers, in order; H or OH if unused. Where a SMILES comes first, the peptide text is derived from it. Side-chain parts run from the residue outwards. [ ]: non-standard residue; d: D form. The star is where a group is joined. C20 diacid = O=C(O)CCCCCCCCCCCCCCCCCCC(=O)*; C18 diacid = O=C(O)CCCCCCCCCCCCCCCCC(=O)*; γGlu = O=C(O)[C@H](CCC(=O)[*:2])N[*:1]; NMeI = CC[C@H](C)[C@H](NC)C(=O)O; Pentanoyl = CCCCC(=O)*; AEEA = NCCOCCOCC(=O)O; Aib = CC(C)(N)C(=O)O

Assays:
[1] = target: T1, CFR1R receptor (Homo sapiens, UniProt P34998); experiment: Activity at anti-target CFR1R receptor, cAMP assay in CRF1R-overexpression CHO-K1 cells; format: cell-based; conditions: 100% = Sauvagine at 100 nM; for EC50: cAMP
T1 construct: host or cells: CHO-K1 (clone 2)
T1 sequence (P34998 24-415): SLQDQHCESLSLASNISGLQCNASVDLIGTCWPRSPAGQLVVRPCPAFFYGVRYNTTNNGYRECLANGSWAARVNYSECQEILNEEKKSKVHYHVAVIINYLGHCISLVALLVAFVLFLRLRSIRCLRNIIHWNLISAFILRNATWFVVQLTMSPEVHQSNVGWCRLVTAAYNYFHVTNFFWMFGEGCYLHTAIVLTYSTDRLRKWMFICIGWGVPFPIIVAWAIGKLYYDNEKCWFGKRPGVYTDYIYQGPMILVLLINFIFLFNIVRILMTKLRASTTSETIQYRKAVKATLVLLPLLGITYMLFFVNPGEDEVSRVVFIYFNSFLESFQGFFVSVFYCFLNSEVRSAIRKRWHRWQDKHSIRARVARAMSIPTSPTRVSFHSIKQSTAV
Method in brief: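 Uses frozen stocks of CHO-K1 clone 2 cells overexpressing human CRF1R, plated at 4000 cells/well final, with cAMP measured by the same protocol as the TeloHAEC line. Full-activation control: 100 nM Sauvagine.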

[2] = Chemical stability in buffer (pH 7.4 / pH 4.5), % purity loss; format: physicochemical; conditions: 40° C. vs 5° C., 14 or 28 days; for Buffer stability pH 4.5 % purity loss: 100 mM acetate buffer pH 4.5; for Buffer stability pH 7.4 % purity loss: 100 mM phosphate buffer pH 7.4
Procedure: Solubility and chemical stability were studied in 100 mM phosphate buffer (pH 7.4) and 100 mM acetate buffer (pH 4.5). Test compound powders were dissolved in both buffers at a target concentration of 10 mg/mL and incubated for 1 hour at room temperature. After centrifugation at 2500 rcf for 15 minutes, 10 μL of supernatant was diluted with 190 μL of the incubation buffer and analyzed by LC-UV (Acquity UPLC-DAD, Waters). Solubility was calculated by comparing the peak area of the test compound in the buffer sample with the peak area of the same compound dissolved at 0.5 mg/mL in water:acetonitrile 1:1, 0.1% formic acid.
From the centrifuged supernatant, two additional 80 μL aliquots were collected and diluted with 160 μL of incubation buffer. One aliquot was stored at 5° C., while the other was stored at 40° C. After 14 or 28 days, the samples were analyzed by LC-UV. Chemical stability was calculated as % loss using the following equations: […]

[3] = target: T2, human CRF2a receptor (Homo sapiens, UniProt Q13324); experiment: Activity at human CRF2a receptor, cAMP functional assay in TeloHEAC cells; format: cell-based; conditions: TeloHEAC cells stably expressing human CRF2a receptor, relative to urocortin 2 (100 nM = 100%)
T2 construct: expressed in transfected cells; host or cells: TeloHEAC cells
T2 sequence (Q13324 1-411): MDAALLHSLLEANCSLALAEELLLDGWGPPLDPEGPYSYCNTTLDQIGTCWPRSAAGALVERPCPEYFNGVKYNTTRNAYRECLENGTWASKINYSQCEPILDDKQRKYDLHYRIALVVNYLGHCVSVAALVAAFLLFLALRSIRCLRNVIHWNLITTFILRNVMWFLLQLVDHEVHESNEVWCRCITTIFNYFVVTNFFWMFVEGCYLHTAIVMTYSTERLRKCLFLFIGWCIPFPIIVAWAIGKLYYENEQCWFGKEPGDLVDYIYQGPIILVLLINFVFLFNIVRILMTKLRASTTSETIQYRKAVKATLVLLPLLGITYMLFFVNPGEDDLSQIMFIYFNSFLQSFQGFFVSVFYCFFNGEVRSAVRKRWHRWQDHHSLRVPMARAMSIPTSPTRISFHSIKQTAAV
Method in brief: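 TeloHEAC cells stably expressing human CRF2a (10000 cells/well, suspended in HBSS/20 mM HEPES with 2 mM IBMX) were exposed to compounds for 30 min at 37 °C. cAMP was read as the 665/620 nm fluorescence ratio after 1 h at room temperature. EC50 was derived relative to 100 nM urocortin 2, set as 100%.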

SMILES	Emax (% I) [1] [% I]	EC50 [1] [nM]	Buffer stability pH 4.5 % purity loss [2]	Buffer stability pH 7.4 % purity loss [2] [%]	EC50 [3] [nM]
CC[C@H](C)[C@H](NC(=O)[C@H](CCC(N)=O)NC(=O)[C@H](CCCCN)NC(=O)[C@H](CC(N)=O)NC(=O)[C@@H](NC(=O)[C@H](CCC(=O)O)NC(=O)[C@H](C)NC(=O)[C@H](CCC(N)=O)NC(=O)[C@H](CCC(=O)O)NC(=O)[C@H](CCCNC(=N)N)NC(=O)[C@H](CCC(N)=O)NC(=O)[C@H](CCCCN)NC(=O)[C@H](CCCCN)NC(=O)[C@H](CCC(N)=O)NC(=O)[C@H](CCCCN)NC(=O)[C@H](CCC(=O)O)NC(=O)[C@H](CCC(N)=O)NC(=O)[C@H](CCC(=O)O)NC(=O)[C@H](CC(C)C)NC(=O)[C@H](CC(C)C)NC(=O)[C@@H](NC(=O)[C@H](CCCCN)NC(=O)[C@H](CCCCNC(=O)COCCOCCNC(=O)COCCOCCNC(=O)CC[C@H](NC(=O)CCCCCCCCCCCCCCCCC(=O)O)C(=O)O)NC(=O)[C@H](CC(C)C)NC(=O)[C@H](CCCCN)NC(=O)[C@@H](NC(=O)[C@@H]1CCCN1C(=O)[C@H](NC(=O)[C@H](CC(=O)O)NC(=O)[C@H](CC(C)C)NC(=O)[C@H](CO)NC(=O)[C@H](CC(C)C)NC(=O)[C@@H](NC(C)=O)C(C)C)C(C)C)[C@@H](C)CC)[C@@H](C)CC)[C@@H](C)O)C(=O)N[C@@H](CC(C)C)C(=O)N[C@@H](C)C(=O)N[C@@H](CCC(N)=O)C(=O)N[C@H](C(N)=O)C(C)C [compound 92] (Ac-VLSLD[dV]PIKLK([AEEA-AEEA-γGlu-C18 diacid])KILLEQEKQKKQREQAETNKQILAQV-NH2)	5	> 250	0%	16.8	2.3
CCCCC(=O)N[C@H](C(=O)N[C@@H](CC(C)C)C(=O)N[C@@H](CO)C(=O)N[C@@H](CC(C)C)C(=O)N[C@@H](CC(=O)O)C(=O)N[C@H](C(=O)N1CCC[C@H]1C(=O)N[C@H](C(=O)N[C@@H](CCCCN)C(=O)N[C@@H](CC(C)C)C(=O)N[C@@H](CCCCNC(=O)COCCOCCNC(=O)COCCOCCNC(=O)CC[C@H](NC(=O)CCCCCCCCCCCCCCCCC(=O)O)C(=O)O)C(=O)N[C@@H](CCCCN)C(=O)N[C@H](C(=O)N[C@@H](CC(C)C)C(=O)N[C@@H](CC(C)C)C(=O)N[C@@H](CCC(=O)O)C(=O)N[C@@H](CCC(N)=O)C(=O)N[C@@H](CCC(=O)O)C(=O)N[C@@H](CCCCN)C(=O)N[C@@H](CCC(N)=O)C(=O)N[C@@H](CCCCN)C(=O)N[C@@H](CCCCN)C(=O)N[C@@H](CCC(N)=O)C(=O)N[C@@H](CCCNC(=N)N)C(=O)N[C@@H](CCC(=O)O)C(=O)N[C@@H](CCC(N)=O)C(=O)N[C@@H](C)C(=O)N[C@@H](CCC(=O)O)C(=O)N[C@H](C(=O)N[C@@H](CC(N)=O)C(=O)N[C@@H](CCCCN)C(=O)N[C@@H](CCC(N)=O)C(=O)N[C@H](C(=O)N[C@@H](CC(C)C)C(=O)N[C@@H](C)C(=O)N[C@@H](CCC(N)=O)C(=O)N[C@H](C(N)=O)C(C)C)[C@@H](C)CC)[C@@H](C)O)[C@@H](C)CC)[C@@H](C)CC)C(C)C)C(C)C [compound 96] (Pentanoyl-VLSLDVPIKLK([AEEA-AEEA-γGlu-C18 diacid])KILLEQEKQKKQREQAETNKQILAQV-NH2)	4	> 250	nd/0 ^ %	–	0.49
CC[C@H](C)[C@H](NC(=O)[C@H](CCC(N)=O)NC(=O)[C@H](CCCCN)NC(=O)[C@H](CC(N)=O)NC(=O)[C@@H](NC(=O)[C@H](CCC(=O)O)NC(=O)[C@H](C)NC(=O)[C@H](CCC(N)=O)NC(=O)[C@H](CCC(=O)O)NC(=O)[C@H](CCCNC(=N)N)NC(=O)[C@H](CCC(N)=O)NC(=O)[C@H](CCCCN)NC(=O)[C@H](CCCCN)NC(=O)[C@H](CCC(N)=O)NC(=O)[C@H](CCCCN)NC(=O)[C@H](CCC(=O)O)NC(=O)[C@H](CCC(N)=O)NC(=O)[C@H](CCC(=O)O)NC(=O)[C@H](CC(C)C)NC(=O)[C@H](CC(C)C)NC(=O)[C@@H](NC(=O)[C@H](CCCCN)NC(=O)[C@H](CCCCNC(=O)COCCOCCNC(=O)COCCOCCNC(=O)CC[C@H](NC(=O)CCCCCCCCCCCCCCCCC(=O)O)C(=O)O)NC(=O)[C@H](CC(C)C)NC(=O)[C@H](CCCCN)NC(=O)[C@@H](NC(=O)[C@@H]1CCCN1C(=O)[C@H](NC(=O)[C@H](CC(=O)O)NC(=O)[C@H](CC(C)C)NC(=O)[C@H](CO)NC(=O)[C@H](CC(C)C)NC(=O)[C@@H](N)C(C)C)C(C)C)[C@@H](C)CC)[C@@H](C)CC)[C@@H](C)O)C(=O)N[C@@H](CC(C)C)C(=O)N[C@@H](C)C(=O)N[C@@H](CCC(N)=O)C(=O)N[C@H](C(N)=O)C(C)C [compound 93] (H-VLSLD[dV]PIKLK([AEEA-AEEA-γGlu-C18 diacid])KILLEQEKQKKQREQAETNKQILAQV-NH2)	6	> 250	0%	19	5.08
CC[C@H](C)[C@H](NC)C(=O)N[C@H](C(=O)N[C@@H](CC(C)C)C(=O)N[C@@H](CO)C(=O)N[C@@H](CC(C)C)C(=O)N[C@@H](CC(=O)O)C(=O)N[C@@H](C(=O)N1CCC[C@H]1C(=O)N[C@H](C(=O)N[C@@H](CCCCN)C(=O)N[C@@H](CC(C)C)C(=O)N[C@@H](CCCCNC(=O)COCCOCCNC(=O)COCCOCCNC(=O)CC[C@H](NC(=O)CCCCCCCCCCCCCCCCCCC(=O)O)C(=O)O)C(=O)N[C@@H](CCCCN)C(=O)N[C@H](C(=O)N[C@@H](CC(C)C)C(=O)N[C@@H](CC(C)C)C(=O)N[C@@H](CCC(=O)O)C(=O)N[C@@H](CCC(N)=O)C(=O)N[C@@H](CCC(=O)O)C(=O)N[C@@H](CCCCN)C(=O)N[C@@H](CCC(N)=O)C(=O)N[C@@H](CCCCN)C(=O)NC(C)(C)C(=O)N[C@@H](CCC(N)=O)C(=O)N[C@@H](CCCNC(=N)N)C(=O)N[C@@H](CCC(=O)O)C(=O)N[C@@H](CCC(N)=O)C(=O)N[C@@H](C)C(=O)N[C@@H](CCC(=O)O)C(=O)N[C@H](C(=O)N[C@@H](CC(N)=O)C(=O)NC(C)(C)C(=O)N[C@@H](CCC(N)=O)C(=O)N[C@H](C(=O)N[C@@H](CC(C)C)C(=O)N[C@@H](C)C(=O)N[C@@H](CCC(N)=O)C(=O)N[C@H](C(N)=O)C(C)C)[C@@H](C)CC)[C@@H](C)O)[C@@H](C)CC)[C@@H](C)CC)C(C)C)C(C)C [compound 239] (H-[NMeI]VLSLD[dV]PIKLK([AEEA-AEEA-γGlu-C20 diacid])KILLEQEKQK[Aib]QREQAETN[Aib]QILAQV-NH2)	0	> 250	2.6%	0.0	0.11
